# Reference: patent US9499711B2, “Treatment liquid and recording method” (Seiko Epson Corporation, priority 2014, dated 2016)
# Experiment: physchem
# Settings: not given
row,SMILES,logP
1,CCCCCO [1-pentanol],1.4

# Same assay, conditions: log P value
row,SMILES,logP
1,"CC(C)(O)CCO [3-methyl-1,3-butanediol]",0.16
2,CCCCOCC(C)O (centres unmarked) [propylene glycol monobutyl ether],1.15
3,CCCCOC(C)COC(C)COC(C)CO (centres unmarked) [tripropylene glycol monobutyl ether],1.34
4,CCCCCCOCCO [ethylene glycol monohexyl ether],1.7
5,CCCOCC(C)O (centres unmarked) [propylene glycol monopropyl ether],0.62
6,CCOCC(C)O (centres unmarked) [propylene glycol monoethyl ether],0.3
7,CCCOC(C)COC(C)CO (centres unmarked) [Dipropylene glycol monopropyl ether],0.87

# Next, values leading:
row,logP,SMILES
1,0.39,CCOCCOCCOCC [diethylene glycol diethyl ether]
2,1.7,CCCCCCOCCOCCO [diethylene glycol monohexyl ether]
3,0.56,CCCCOCCOCCO [diethylene glycol monobutyl ether]

# Same assay, conditions: logP value of organic compound
row,SMILES,logP
1,CCOCCOCCOCCO [Triethylene glycol monoethyl ether],-2.75
2,"CCCC(O)C(CC)CO (centres unmarked) [2-Ethyl-1,3-hexane diol]",1.6
3,CCCOC(C)COC(C)CO (centres unmarked) [Dipropylene glycol monopropyl ether],0.6
